The text below walks through data of ChEMBL document CHEMBL1201862, “PubChem BioAssay data set” (2004).

Some test systems named below: NCI-H460; OVCAR-4; HCC 2998; OVCAR-8; HOP-62; SNB-75; HCT-116; M19-MEL; UACC-62; NCI-H226; SNB-19; UACC-257; MCF7; COLO 205; OVCAR-3; UO-31; U-251; SF-539; MDA-MB-435; PC-3.
Holding throughout (experiment): growth of human tumour cells (NCI), 48 h

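How tested: cells in 96-well plates exposed to compound for 48 hours at five concentrations. The concentration for 50% growth inhibition is given as GI50.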 Active and inactive are the calls of the source. Cut-off read from the data, not from the text of the source: active = GI50 up to about 1.1 µM and inactive = higher.

Take `COc1cc2c(c(OC)c1OC)C(=O)NCCC2`: the GI50 in the assay on NCI-H460 is > 100 µM (inactive); with OVCAR-4, > 100 µM (inactive); in the assay with HCC 2998, > 92.9 µM (inactive); in the assay on OVCAR-8, > 100 µM (inactive); in the assay on HOP-62 it was > 100 µM (inactive); with SNB-75 it was 69.7 µM (inactive). In addition, the GI50 in the assay on HCT-116, in the assay on M19-MEL, in the assay with UACC-62, in the assay with NCI-H226, in the assay with SNB-19 and in the assay with UACC-257 was > 100 µM (inactive) throughout. The GI50 with MCF7, in the assay with COLO 205, in the assay with OVCAR-3, with UO-31, in the assay with U-251 and with SF-539 was > 100 µM (inactive) each time.

With `O=C1C=CC(=O)c2cc(Sc3ccccc3)c(=O)ccc21`, the GI50 in the assay with NCI-H460 was 22 µM (inactive); in the assay with OVCAR-4, 11 µM (inactive); with HCC 2998 it was 16.3 µM (inactive); with OVCAR-8, 15.7 µM (inactive); in the assay on HOP-62 it was 28.6 µM (inactive); in the assay with SNB-75, 8.2 µM (inactive). Also, the GI50 in the assay on HCT-116 is 18 µM (inactive); in the assay with M19-MEL, 16.6 µM (inactive); in the assay on UACC-62, 15.5 µM (inactive); with NCI-H226, 23.1 µM (inactive); in the assay on SNB-19 it was 19.3 µM (inactive); in the assay on UACC-257, 18 µM (inactive). Further, the GI50 was 5.83 µM (inactive) in the assay with MCF7; 25.5 µM (inactive) with MDA-MB-435; 7.73 µM (inactive) with COLO 205; 18.2 µM (inactive) with PC-3; 16.9 µM (inactive) in the assay on OVCAR-3; 11.7 µM (inactive) with UO-31. Also, the figures for the GI50 with U-251 and in the assay with SF-539 were 17 µM (inactive) and 19.8 µM (inactive), respectively.

For `C=C1C(C)C2C(Cc3ccccc3)NC(=O)C23C(OC(C)=O)/C=C/C(C)(O)CC(C)C/C=C/C3C1O` (centres undefined), the GI50 is 0.29 µM (active) in the assay on NCI-H460; 0.904 µM (active) in the assay with OVCAR-4; 16.1 µM (inactive) in the assay with HCC 2998; 54.6 µM (inactive) with OVCAR-8; 0.0435 µM (active) with HOP-62; 0.014 µM (active) in the assay with SNB-75. For the same compound, the GI50 was 4.53 µM (inactive) with HCT-116; 49.1 µM (inactive) with M19-MEL; 18.2 µM (inactive) in the assay with UACC-62; 0.728 µM (active) in the assay on NCI-H226; 0.0863 µM (active) in the assay on SNB-19; 17.1 µM (inactive) in the assay with UACC-257. The GI50 is 6.56 µM (inactive) with MCF7; 32.9 µM (inactive) in the assay on MDA-MB-435; 0.104 µM (active) with COLO 205; 2.19 µM (inactive) in the assay on OVCAR-3; 0.0618 µM (active) in the assay with UO-31; 0.0679 µM (active) in the assay with U-251. Further, the GI50 with SF-539 is 0.0836 µM (active).

As for `CC(C)=CC(=O)N(C)C1C2CN3CCC(O2)C13` (centres undefined), the GI50 in the assay with NCI-H460, in the assay on OVCAR-4, in the assay on HCC 2998, with OVCAR-8, in the assay on HOP-62 and in the assay on SNB-75 was > 100 µM (inactive) each time. Further, the GI50 in the assay on HCT-116, with M19-MEL, in the assay with UACC-62, in the assay with NCI-H226, with SNB-19 and in the assay with UACC-257 was > 100 µM (inactive) throughout. For the same compound, the GI50 in the assay with COLO 205, in the assay with OVCAR-3, in the assay on UO-31, in the assay on U-251 and in the assay with SF-539 was > 100 µM (inactive) in each case.

Regarding `CC1=C2C(=CC(C)(C)[C@@H]2O)C(=O)[C@](C)(O)C12CC2` [ILLUDIN M], the GI50 is 0.01 µM (active) with NCI-H460; < 0.0112 µM (active) with OVCAR-4; < 0.0117 µM (active) with HCC 2998; < 0.018 µM (active) in the assay with OVCAR-8; 0.0185 µM (active) with HOP-62; 0.0165 µM (active) in the assay on SNB-75. Besides, the GI50 was 0.01 µM (active) in the assay with HCT-116; 0.0246 µM (active) in the assay on M19-MEL; 0.0208 µM (active) in the assay with UACC-62; 0.0619 µM (active) in the assay on NCI-H226; 0.027 µM (active) with SNB-19; 0.08 µM (active) in the assay with UACC-257. The GI50 in the assay with COLO 205 was 0.0243 µM (active); with PC-3, 0.0138 µM (active); in the assay with OVCAR-3, < 0.0143 µM (active); with UO-31, 0.0246 µM (active); in the assay on U-251, 0.01 µM (active); with SF-539, 0.0184 µM (active).

For `COC(=O)[C@H]1[C@H]2C[C@@H]3c4[nH]c5cc(OC)ccc5c4CCN3C[C@H]2C[C@@H](OC(=O)c2cc(OC)c(OC)c(OC)c2)[C@@H]1OC` [RESERPINE], the GI50 is 18.9 µM (inactive) in the assay with NCI-H460; 12.7 µM (inactive) in the assay on OVCAR-4; 27.8 µM (inactive) in the assay with HCC 2998; 19.6 µM (inactive) in the assay with OVCAR-8; 12.6 µM (inactive) with HOP-62; 2.7 µM (inactive) in the assay on SNB-75. For the same compound, the GI50 in the assay on HCT-116 is 13.7 µM (inactive); with M19-MEL, 20.9 µM (inactive); with UACC-62, 13.3 µM (inactive); in the assay with NCI-H226, 19.6 µM (inactive); with SNB-19, 16.2 µM (inactive); in the assay with UACC-257, 15.6 µM (inactive). The GI50 is 15.7 µM (inactive) with COLO 205; 18.3 µM (inactive) in the assay on OVCAR-3; 15.1 µM (inactive) in the assay with UO-31; 15 µM (inactive) in the assay on U-251; 11.6 µM (inactive) with SF-539.
